Measurements reported in patent US9340590B2 (priority 2011, dated 2016).
Where two headings read alike, the source gives them in different places. Positions of bridges follow the written chain, without caps; N, C: chain ends. Residues, ends and D or L forms follow the SMILES beside them.

Legend:
Experiment in all cases: cell-based
[1] = molecular target: hNav1.7 (Homo sapiens, UniProt Q15858); assay type: cell-based
[2] = molecular target: hNav1.5 (Homo sapiens, UniProt Q14524); details: IonWorks Quattro, read-out: IWQ Use Nav1.5
[3] = molecular target: hNav1.3 (Homo sapiens, UniProt Q9NY46); details: IonWorks Quattro, read-out: IWQ Use Nav1.3
hNav1.3, sequence (Q9NY46 whole entry, looked up): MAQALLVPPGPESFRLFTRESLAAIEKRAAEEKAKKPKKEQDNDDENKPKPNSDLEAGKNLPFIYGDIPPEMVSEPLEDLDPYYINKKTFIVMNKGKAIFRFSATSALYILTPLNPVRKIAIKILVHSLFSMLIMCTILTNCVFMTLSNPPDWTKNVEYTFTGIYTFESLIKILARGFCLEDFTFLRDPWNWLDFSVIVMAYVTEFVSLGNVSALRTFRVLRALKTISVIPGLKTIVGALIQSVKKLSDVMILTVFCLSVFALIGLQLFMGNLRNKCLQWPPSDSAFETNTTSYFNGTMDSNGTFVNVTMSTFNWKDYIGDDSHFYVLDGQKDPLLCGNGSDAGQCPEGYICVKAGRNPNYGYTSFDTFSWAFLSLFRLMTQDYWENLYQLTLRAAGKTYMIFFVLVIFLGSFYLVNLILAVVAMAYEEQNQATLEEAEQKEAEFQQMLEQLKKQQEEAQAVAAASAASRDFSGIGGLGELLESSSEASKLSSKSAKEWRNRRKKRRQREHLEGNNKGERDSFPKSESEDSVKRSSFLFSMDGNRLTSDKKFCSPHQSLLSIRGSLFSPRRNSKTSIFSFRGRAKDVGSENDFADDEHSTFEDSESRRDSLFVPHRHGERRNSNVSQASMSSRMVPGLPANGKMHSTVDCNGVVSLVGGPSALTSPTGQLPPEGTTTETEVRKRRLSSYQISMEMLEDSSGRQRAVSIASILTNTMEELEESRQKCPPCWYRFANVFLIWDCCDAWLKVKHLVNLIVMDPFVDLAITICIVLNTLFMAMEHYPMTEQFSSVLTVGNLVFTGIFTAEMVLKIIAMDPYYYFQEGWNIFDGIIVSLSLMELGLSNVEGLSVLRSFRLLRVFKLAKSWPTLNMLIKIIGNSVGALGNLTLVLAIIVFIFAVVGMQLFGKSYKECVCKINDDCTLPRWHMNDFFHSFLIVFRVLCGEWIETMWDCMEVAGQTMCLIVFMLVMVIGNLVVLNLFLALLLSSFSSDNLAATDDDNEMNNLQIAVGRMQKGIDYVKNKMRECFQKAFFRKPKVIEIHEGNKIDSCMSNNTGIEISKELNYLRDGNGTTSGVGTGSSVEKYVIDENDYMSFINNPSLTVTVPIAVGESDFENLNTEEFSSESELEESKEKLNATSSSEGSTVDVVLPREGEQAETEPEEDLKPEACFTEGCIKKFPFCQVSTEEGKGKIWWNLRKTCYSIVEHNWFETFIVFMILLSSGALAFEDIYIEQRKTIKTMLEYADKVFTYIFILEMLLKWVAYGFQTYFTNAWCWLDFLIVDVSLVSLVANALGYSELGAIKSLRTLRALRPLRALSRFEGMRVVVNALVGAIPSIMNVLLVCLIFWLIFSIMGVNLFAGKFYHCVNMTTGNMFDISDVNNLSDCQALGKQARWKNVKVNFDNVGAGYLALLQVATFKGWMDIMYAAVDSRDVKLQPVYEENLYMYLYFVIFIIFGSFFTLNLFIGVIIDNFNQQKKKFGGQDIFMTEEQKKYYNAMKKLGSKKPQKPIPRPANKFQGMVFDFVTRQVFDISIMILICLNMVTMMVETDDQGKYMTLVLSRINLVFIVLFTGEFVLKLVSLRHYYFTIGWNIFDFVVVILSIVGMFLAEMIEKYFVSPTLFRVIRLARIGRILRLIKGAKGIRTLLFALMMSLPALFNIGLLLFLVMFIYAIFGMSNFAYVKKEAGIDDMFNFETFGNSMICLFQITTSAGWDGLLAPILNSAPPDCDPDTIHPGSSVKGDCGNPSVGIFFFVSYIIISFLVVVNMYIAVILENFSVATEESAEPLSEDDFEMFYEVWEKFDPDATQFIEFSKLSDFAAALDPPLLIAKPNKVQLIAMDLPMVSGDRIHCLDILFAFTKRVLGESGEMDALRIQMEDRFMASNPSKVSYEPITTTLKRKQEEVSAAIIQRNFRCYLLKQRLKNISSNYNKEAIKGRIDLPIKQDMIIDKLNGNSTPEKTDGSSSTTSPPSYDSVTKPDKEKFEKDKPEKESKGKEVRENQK

hNav1.5, sequence (Q14524 whole entry, looked up): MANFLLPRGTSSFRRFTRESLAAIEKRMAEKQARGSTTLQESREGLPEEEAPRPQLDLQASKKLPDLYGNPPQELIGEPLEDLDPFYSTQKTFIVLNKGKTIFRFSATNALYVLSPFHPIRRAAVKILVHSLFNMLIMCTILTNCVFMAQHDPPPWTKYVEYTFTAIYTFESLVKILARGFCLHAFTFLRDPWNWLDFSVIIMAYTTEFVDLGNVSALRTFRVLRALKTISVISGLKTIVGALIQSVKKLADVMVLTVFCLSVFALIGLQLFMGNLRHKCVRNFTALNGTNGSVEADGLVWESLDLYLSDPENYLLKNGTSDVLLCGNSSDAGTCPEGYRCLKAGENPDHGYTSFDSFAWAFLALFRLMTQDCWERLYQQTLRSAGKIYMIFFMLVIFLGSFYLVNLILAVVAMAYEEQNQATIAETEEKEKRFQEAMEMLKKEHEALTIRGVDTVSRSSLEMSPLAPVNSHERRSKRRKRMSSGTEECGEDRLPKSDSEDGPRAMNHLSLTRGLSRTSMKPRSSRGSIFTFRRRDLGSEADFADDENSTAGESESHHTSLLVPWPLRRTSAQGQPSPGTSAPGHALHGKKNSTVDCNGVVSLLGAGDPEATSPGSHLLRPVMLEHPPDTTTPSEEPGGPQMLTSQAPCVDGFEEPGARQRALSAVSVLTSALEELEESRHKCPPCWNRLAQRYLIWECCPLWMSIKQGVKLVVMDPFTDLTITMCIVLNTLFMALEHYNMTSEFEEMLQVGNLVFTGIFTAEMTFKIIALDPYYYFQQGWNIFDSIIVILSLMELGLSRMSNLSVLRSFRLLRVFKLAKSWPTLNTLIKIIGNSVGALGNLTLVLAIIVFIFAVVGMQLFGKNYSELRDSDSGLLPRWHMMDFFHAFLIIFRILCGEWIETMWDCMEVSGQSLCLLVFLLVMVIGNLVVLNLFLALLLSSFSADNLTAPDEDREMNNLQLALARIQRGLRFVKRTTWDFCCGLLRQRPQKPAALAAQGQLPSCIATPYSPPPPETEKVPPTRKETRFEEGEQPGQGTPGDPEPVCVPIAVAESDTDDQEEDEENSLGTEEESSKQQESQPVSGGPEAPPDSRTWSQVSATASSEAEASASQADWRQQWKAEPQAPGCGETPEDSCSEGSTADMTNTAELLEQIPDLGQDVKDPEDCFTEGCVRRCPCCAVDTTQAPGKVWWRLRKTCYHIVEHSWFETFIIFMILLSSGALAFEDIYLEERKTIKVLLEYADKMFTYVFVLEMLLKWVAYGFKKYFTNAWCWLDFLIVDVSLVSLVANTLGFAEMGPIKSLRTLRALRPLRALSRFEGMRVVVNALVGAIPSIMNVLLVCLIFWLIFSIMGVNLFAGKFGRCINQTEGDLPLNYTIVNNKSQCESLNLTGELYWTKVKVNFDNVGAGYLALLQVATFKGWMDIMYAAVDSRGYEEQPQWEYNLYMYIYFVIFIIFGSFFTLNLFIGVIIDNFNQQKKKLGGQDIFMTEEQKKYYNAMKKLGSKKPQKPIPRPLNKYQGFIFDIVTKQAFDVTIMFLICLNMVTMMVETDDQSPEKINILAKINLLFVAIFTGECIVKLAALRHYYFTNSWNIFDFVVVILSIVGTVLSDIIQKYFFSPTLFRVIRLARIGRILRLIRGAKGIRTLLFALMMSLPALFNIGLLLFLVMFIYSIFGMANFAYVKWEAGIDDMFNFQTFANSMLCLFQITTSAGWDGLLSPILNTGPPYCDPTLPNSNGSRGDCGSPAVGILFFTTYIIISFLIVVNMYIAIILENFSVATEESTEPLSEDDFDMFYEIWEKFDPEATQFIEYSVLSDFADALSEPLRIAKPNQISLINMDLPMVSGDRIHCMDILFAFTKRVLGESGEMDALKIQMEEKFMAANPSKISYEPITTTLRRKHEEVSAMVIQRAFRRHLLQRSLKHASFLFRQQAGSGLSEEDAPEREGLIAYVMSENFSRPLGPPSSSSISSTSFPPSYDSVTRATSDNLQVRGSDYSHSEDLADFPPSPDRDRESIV

Row | Compound | IC50 [1] [µM] | IC50 ([2]; Use) [µM] | IC50 ([3]; Use) [µM] | further results
1 | CC[C@H](C)[C@@H]1NC(=O)[C@@H]2CSSC[C@@H]3NC(=O)[C@H](C(C)C)NC(=O)[C@H](CC(C)C)NC(=O)[C@H](CC(N)=O)NC(=O)[C@@H]4CCCN4C(=O)[C@H](CCCNC(=N)N)NC(=O)[C@H](CSSC[C@H](NC(=O)[C@@H](N)CC(=O)O)C(=O)N[C@@H](CC(C)C)C(=O)NCC(=O)N[C@@H](Cc4ccccc4)C(=O)N[C@@H](CCSC)C(=O)N[C@@H](CCCNC(=N)N)C(=O)N[C@@H](CCCCN)C(=O)N2)NC(=O)[C@H](CSSC[C@@H](C(=O)N[C@@H](CCCCN)C(=O)N[C@@H](Cc2ccc(O)cc2)C(=O)N[C@H](C(=O)N[C@@H](Cc2ccccc2)C(N)=O)C(C)C)NC(=O)[C@H](Cc2c[nH]c4ccccc24)NC(=O)[C@H](CCCCN)NC(=O)[C@H](Cc2cnc[nH]2)NC(=O)[C@H]([C@@H](C)O)NC(=O)[C@H](CCCNC(=N)N)NC(=O)[C@H](CO)NC3=O)NC(=O)[C@H](CCCCN)NC(=O)[C@H](CC(=O)O)NC(=O)[C@H](CC(N)=O)NC(=O)[C@H](CCC(=O)O)NC(=O)[C@@H]2CCCN2C1=O [compound 26] (H-DCLGFMRKCIPENDKCCRPNLVCSRTHKWCKYVF-NH2; disulfide 2-17, 9-23, 16-30) | 0.26 | 6.45 | 0.19 | 
2 | CC[C@H](C)[C@@H]1NC(=O)[C@@H]2CSSC[C@@H]3NC(=O)[C@H](C(C)C)NC(=O)[C@H](CC(C)C)NC(=O)[C@H](CC(N)=O)NC(=O)[C@@H]4CCCN4C(=O)[C@H](CCCNC(=N)N)NC(=O)[C@H](CSSC[C@H](NC(=O)[C@@H](N)CC(=O)O)C(=O)N[C@@H](CC(C)C)C(=O)NCC(=O)N[C@@H](Cc4ccccc4)C(=O)N[C@@H](CCSC)C(=O)N[C@@H](CCCNC(=N)N)C(=O)N[C@@H](CCCCN)C(=O)N2)NC(=O)[C@H](CSSC[C@@H](C(=O)N[C@@H](CCCCN)C(=O)N[C@@H](Cc2ccc(O)cc2)C(=O)N[C@H](C(=O)N[C@@H](Cc2ccccc2)C(N)=O)C(C)C)NC(=O)[C@H](Cc2c[nH]c4ccccc24)NC(=O)[C@H](CCCCN)NC(=O)[C@H](Cc2cnc[nH]2)NC(=O)[C@H]([C@@H](C)O)NC(=O)[C@H](CCCNC(=N)N)NC(=O)[C@H](CO)NC3=O)NC(=O)[C@H](CCCCN)NC(=O)[C@H](CC(=O)O)NC(=O)[C@H](CCC(=O)O)NC(=O)[C@H](CC(=O)O)NC(=O)[C@@H]2CCCN2C1=O [compound 27] (H-DCLGFMRKCIPDEDKCCRPNLVCSRTHKWCKYVF-NH2; disulfide 2-17, 9-23, 16-30) |  | 9.38 | 0.22 | IC50 ([1]; IonWorks Quattro, Use, read-out: IWQ Use Nav1.7): 0.26 µM
3 | CC[C@H](C)[C@@H]1NC(=O)[C@@H]2CSSC[C@@H]3NC(=O)[C@H](C(C)C)NC(=O)[C@H](CC(C)C)NC(=O)[C@H](CC(N)=O)NC(=O)[C@@H]4CCCN4C(=O)[C@H](CCCNC(=N)N)NC(=O)[C@H](CSSC[C@H](NC(=O)[C@@H](N)CC(=O)O)C(=O)N[C@@H](CC(C)C)C(=O)NCC(=O)N[C@@H](Cc4ccccc4)C(=O)N[C@@H](CCSC)C(=O)N[C@@H](CCCNC(=N)N)C(=O)N[C@@H](CCCCN)C(=O)N2)NC(=O)[C@H](CSSC[C@@H](C(=O)N[C@@H](CCCCN)C(=O)N[C@@H](Cc2ccc(O)cc2)C(=O)N[C@H](C(=O)N[C@@H](Cc2ccccc2)C(N)=O)C(C)C)NC(=O)[C@H](Cc2c[nH]c4ccccc24)NC(=O)[C@H](CCCCN)NC(=O)[C@H](Cc2c[nH]cn2)NC(=O)[C@H]([C@@H](C)O)NC(=O)[C@H](CCCNC(=N)N)NC(=O)[C@H](CO)NC3=O)NC(=O)[C@H](CCC(=O)O)NC(=O)[C@H](CC(=O)O)NC(=O)[C@H](CC(N)=O)NC(=O)[C@H](CC(=O)O)NC(=O)[C@@H]2CCCN2C1=O [compound 28] (H-DCLGFMRKCIPDNDECCRPNLVCSRTHKWCKYVF-NH2; disulfide 2-17, 9-23, 16-30) | 0.59 | 12.1 | 0.49 | 
4 | CC[C@H](C)[C@@H]1NC(=O)[C@@H]2CSSC[C@@H]3NC(=O)[C@H](C(C)C)NC(=O)[C@H](CC(C)C)NC(=O)[C@H](CC(N)=O)NC(=O)[C@@H]4CCCN4C(=O)[C@H](CCCNC(=N)N)NC(=O)[C@H](CSSC[C@H](NC(=O)[C@@H](N)CC(=O)O)C(=O)N[C@@H](CC(C)C)C(=O)NCC(=O)N[C@@H](Cc4ccccc4)C(=O)N[C@@H](CCSC)C(=O)N[C@@H](CCCNC(=N)N)C(=O)N[C@@H](CCCCN)C(=O)N2)NC(=O)[C@H](CSSC[C@@H](C(=O)N[C@@H](CCCCN)C(=O)N[C@@H](Cc2ccc(O)cc2)C(=O)N[C@H](C(=O)N[C@@H](Cc2ccccc2)C(N)=O)C(C)C)NC(=O)[C@H](Cc2c[nH]c4ccccc24)NC(=O)[C@H](CCCCN)NC(=O)[C@H](CCC(=O)O)NC(=O)[C@H]([C@@H](C)O)NC(=O)[C@H](CCCNC(=N)N)NC(=O)[C@H](CO)NC3=O)NC(=O)[C@H](CCCCN)NC(=O)[C@H](CC(=O)O)NC(=O)[C@H](CC(N)=O)NC(=O)[C@H](CC(=O)O)NC(=O)[C@@H]2CCCN2C1=O [compound 29] (H-DCLGFMRKCIPDNDKCCRPNLVCSRTEKWCKYVF-NH2; disulfide 2-17, 9-23, 16-30) |  |  |  | IC50 ([1]; Table 23, IonWorks Quattro, use, […], read-out: IWQ Use Nav1.7): 8.54 µM; IC50 ([2]; Table 23, use, […]): 15.2 µM; IC50 ([3]; Table 23, use, […]): 12.3 µM
5 | CC[C@H](C)[C@@H]1NC(=O)[C@@H]2CSSC[C@@H]3NC(=O)[C@H](C(C)C)NC(=O)[C@H](CC(C)C)NC(=O)[C@H](CC(N)=O)NC(=O)[C@@H]4CCCN4C(=O)[C@H](CCCNC(=N)N)NC(=O)[C@H](CSSC[C@H](NC(=O)[C@@H](N)CC(=O)O)C(=O)N[C@@H](CC(C)C)C(=O)NCC(=O)N[C@@H](Cc4ccccc4)C(=O)N[C@@H](CCSC)C(=O)N[C@@H](CCCNC(=N)N)C(=O)N[C@@H](CCCCN)C(=O)N2)NC(=O)[C@H](CSSC[C@@H](C(=O)N[C@@H](CCC(=O)O)C(=O)N[C@@H](Cc2ccc(O)cc2)C(=O)N[C@H](C(=O)N[C@@H](Cc2ccccc2)C(N)=O)C(C)C)NC(=O)[C@H](Cc2c[nH]c4ccccc24)NC(=O)[C@H](CCCCN)NC(=O)[C@H](Cc2cnc[nH]2)NC(=O)[C@H]([C@@H](C)O)NC(=O)[C@H](CCCNC(=N)N)NC(=O)[C@H](CO)NC3=O)NC(=O)[C@H](CCCCN)NC(=O)[C@H](CC(=O)O)NC(=O)[C@H](CC(N)=O)NC(=O)[C@H](CC(=O)O)NC(=O)[C@@H]2CCCN2C1=O [compound 31] (H-DCLGFMRKCIPDNDKCCRPNLVCSRTHKWCEYVF-NH2; disulfide 2-17, 9-23, 16-30) |  |  |  | IC50 ([1]; Table 25, IonWorks Quattro, use, […], read-out: IWQ Use Nav1.7): 23 µM; IC50 ([2]; Table 25, use, […]): 21.7 µM; IC50 ([3]; Table 25, use, […]): 13.1 µM
